Data published in PubChem BioAssay AID248 (DTP/NCI, 2004).
Several values for one entry are separate records, joined by “and”; a condition that tells them apart may be missing. Identical values can stand only once. Toxic doses and inconclusive results are not listed. No stated cut-off is given here; in the data, active means T/C of 150% or more; inactive means T/C below 125%.

System: L1210 leukemia ip in BDF1 mice, survival T/C
Experiment: NCI In Vivo Anticancer Drug Screen. Data for tumor model L1210 Leukemia (intraperitoneal) in B6D2F1 (BDF1) mice
Conditions: endpoint: mean survival time, higher = longer survival
Method in brief: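 Tumor was transplanted into mice, which were then dosed with test compound or vehicle alone. Survival was recorded for each group, and the treated figure was expressed relative to the control figure.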

[1] = dose: 25.0 mg/kg/injection, schedule: Q04DX003 (ip), vehicle: Klucel (hydroxypropylcellulose) (HPC)
[2] = dose: 50.0 mg/kg/injection, schedule: Q04DX003 (ip), vehicle: Klucel (hydroxypropylcellulose) (HPC)
[3] = dose: 100.0 mg/kg/injection, schedule: Q01DX009 (ip), vehicle: Klucel (hydroxypropylcellulose) (HPC)
[4] = dose: 100.0 mg/kg/injection, schedule: Q04DX003 (ip), vehicle: Klucel (hydroxypropylcellulose) (HPC)
[5] = dose: 200.0 mg/kg/injection, schedule: Q01DX009 (ip), vehicle: Klucel (hydroxypropylcellulose) (HPC)
[6] = dose: 200.0 mg/kg/injection, schedule: Q04DX003 (ip), vehicle: Klucel (hydroxypropylcellulose) (HPC)
[7] = dose: 400.0 mg/kg/injection, schedule: Q04DX003 (ip), vehicle: Klucel (hydroxypropylcellulose) (HPC)
[8] = dose: 50.0 mg/kg/injection, schedule: Q01DX009 (ip), vehicle: Klucel (hydroxypropylcellulose) (HPC)
[9] = dose: 400.0 mg/kg/injection, schedule: Q01DX009 (ip), vehicle: Klucel (hydroxypropylcellulose) (HPC)
[10] = dose: 100.0 mg/kg/injection, schedule: Q01DX001 (ip), vehicle: other
[11] = dose: 200.0 mg/kg/injection, schedule: Q01DX001 (ip), vehicle: other
[12] = dose: 100.0 mg/kg/injection, schedule: Q01DX009 (ip), vehicle: saline
[13] = dose: 100.0 mg/kg/injection, schedule: Q04DX003 (ip), vehicle: saline
[14] = dose: 200.0 mg/kg/injection, schedule: Q01DX009 (ip), vehicle: saline
[15] = dose: 200.0 mg/kg/injection, schedule: Q04DX003 (ip), vehicle: saline
[16] = dose: 400.0 mg/kg/injection, schedule: Q01DX009 (ip), vehicle: saline
[17] = dose: 400.0 mg/kg/injection, schedule: Q01DX001 (ip), vehicle: other
[18] = dose: 25.0 mg/kg/injection, schedule: Q01DX009 (ip), vehicle: saline
[19] = dose: 50.0 mg/kg/injection, schedule: Q01DX009 (ip), vehicle: saline

Measured: T/C

CC(=O)OC1C(OCc2ccccc2)OC(COCc2ccccc2)C(OC2OC(COCc3ccccc3)C(OCc3ccccc3)C(OCc3ccccc3)C2OCc2ccccc2)C1OCc1ccccc1 (configuration not stated)
inactive: dose: 5.31 mg/kg/injection, schedule: Q01DX009 (ip), vehicle: Klucel (hydroxypropylcellulose) (HPC) 97 % of control | dose: 10.62 mg/kg/injection, schedule: Q01DX009 (ip), vehicle: Klucel (hydroxypropylcellulose) (HPC) 94 % of control | dose: 12.5 mg/kg/injection, schedule: Q04DX003 (ip), vehicle: Klucel (hydroxypropylcellulose) (HPC) 87 % of control and 92 % of control | dose: 21.25 mg/kg/injection, schedule: Q01DX009 (ip), vehicle: Klucel (hydroxypropylcellulose) (HPC) 94 % of control | [1] 87 % of control | [2] 87 % of control and 88 % of control | dose: 75.0 mg/kg/injection, schedule: Q04DX003 (ip), vehicle: other 91 % of control | dose: 85.0 mg/kg/injection, schedule: Q01DX009 (ip), vehicle: Klucel (hydroxypropylcellulose) (HPC) 86 % of control | dose: 115.0 mg/kg/injection, schedule: Q04DX003 (ip), vehicle: other 91 % of control | dose: 170.0 mg/kg/injection, schedule: Q04DX003 (ip), vehicle: other 93 % of control

O=[N+]([O-])c1ccc(C=Nc2cccc(C(F)(F)F)c2)cc1
inactive: [3] 90 % of control | [4] 90 % of control | [5] 98 % of control | [6] 95 % of control | [7] 93 % of control

CC(C)(C)C#C/C(=N\Nc1ccc([N+](=O)[O-])cc1[N+](=O)[O-])c1ccccc1
inactive: dose: 50.0 mg/kg/injection, schedule: Q04DX002 (ip), vehicle: saline with Tween-80 89 % of control | dose: 100.0 mg/kg/injection, schedule: Q04DX002 (ip), vehicle: saline with Tween-80 96 % of control | dose: 400.0 mg/kg/injection, schedule: Q04DX002 (ip), vehicle: saline with Tween-80 86 % of control

CC(C)CCNc1ncnc2[nH]ncc12
inactive: dose: 12.5 mg/kg/injection, schedule: Q01DX009 (ip), vehicle: Klucel (hydroxypropylcellulose) (HPC) 117 % of control | dose: 25.0 mg/kg/injection, schedule: Q01DX009 (ip), vehicle: Klucel (hydroxypropylcellulose) (HPC) 104 % of control | [8] 109 % of control

CC(=O)Oc1cccc(OC(=O)Nc2ccc(C)c(NC(=O)Oc3cccc(OC(C)=O)c3)c2)c1
inactive: [3] 93 % of control | [5] 96 % of control | [9] 94 % of control

O=c1[nH]cc(NCc2ccco2)c(=O)[nH]1
inactive: [4] 101 % of control | [6] 88 % of control | [7] 93 % of control

CCCCCCCCCCCCCCCCCCCCCCCCCCCCCCCS
inactive: [10] 95 % of control | [11] 103 % of control

ICc1cccc(CI)c1
inactive: dose: 6.25 mg/kg/injection, schedule: Q01DX009 (ip), vehicle: carboxymethylcellulose (CMC) 100 % of control | dose: 6.25 mg/kg/injection, schedule: Q04DX003 (ip), vehicle: carboxymethylcellulose (CMC) 111 % of control | dose: 12.5 mg/kg/injection, schedule: Q01DX001 (ip), vehicle: other 95 % of control | dose: 12.5 mg/kg/injection, schedule: Q01DX009 (ip), vehicle: carboxymethylcellulose (CMC) 94 % of control | dose: 12.5 mg/kg/injection, schedule: Q04DX003 (ip), vehicle: carboxymethylcellulose (CMC) 97 % of control | dose: 25.0 mg/kg/injection, schedule: Q01DX001 (ip), vehicle: other 95 % of control | dose: 25.0 mg/kg/injection, schedule: Q04DX003 (ip), vehicle: carboxymethylcellulose (CMC) 92 % of control

O=C(Oc1ccc([N+](=O)[O-])cc1)c1ccc(C[P+](c2ccccc2)(c2ccccc2)c2ccccc2)cc1
inactive: [12] 98 % of control | [13] 93 % of control | [14] 98 % of control | [15] 90 % of control | [16] 96 % of control | dose: 400.0 mg/kg/injection, schedule: Q04DX003 (ip), vehicle: saline 93 % of control

O=[N+]([O-])c1ccc2cnn(C[N+]34CN5CN(CN(C5)C3)C4)c2c1
inactive: [10] 103 % of control | [11] 100 % of control | [17] 111 % of control

COc1ccc(C(=O)/C=C/c2ccc(Cl)cc2)cc1
inactive: [4] 100 % of control | [6] 95 % of control | [7] 92 % of control

N=C(N)SCc1ccccc1Cl
inactive: dose: 3.13 mg/kg/injection, schedule: Q01DX009 (ip), vehicle: saline 96 % of control | dose: 3.13 mg/kg/injection, schedule: Q04DX002 (ip), vehicle: saline 102 % of control | dose: 6.25 mg/kg/injection, schedule: Q01DX009 (ip), vehicle: saline 98 % of control | dose: 6.25 mg/kg/injection, schedule: Q04DX002 (ip), vehicle: saline 102 % of control | dose: 12.5 mg/kg/injection, schedule: Q01DX009 (ip), vehicle: saline 96 % of control | dose: 12.5 mg/kg/injection, schedule: Q04DX002 (ip), vehicle: saline 91 % of control | [18] 96 % of control | dose: 25.0 mg/kg/injection, schedule: Q04DX002 (ip), vehicle: saline 97 % of control and 98 % of control | dose: 50.0 mg/kg/injection, schedule: Q04DX002 (ip), vehicle: saline 94 % of control

Cc1cc(C)c(C(=O)OC(c2ccccc2)C(c2ccccc2)N2CCOCC2)c(C)c1 (configuration not stated)
inactive: dose: 75.0 mg/kg/injection, schedule: Q01DX001 (ip), vehicle: saline 96 % of control | dose: 150.0 mg/kg/injection, schedule: Q01DX001 (ip), vehicle: saline 97 % of control | dose: 300.0 mg/kg/injection, schedule: Q01DX001 (ip), vehicle: saline 86 % of control

CNP1(N(C)C)=NP(NC)(N(C)C)=NP(NC)(N(C)C)=N1 (configuration not stated)
inactive: [19] 102 % of control | [12] 100 % of control | [14] 94 % of control

CC(C)(C)CC(Cl)Cl
inactive: [3] 100 % of control | [4] 96 % of control | [5] 101 % of control | [6] 98 % of control | [7] 94 % of control

CCOC(=O)CNC(=O)CNC(=O)CCCCSc1ncnc2nc[nH]c12
inactive: [18] 110 % of control | [19] 98 % of control | dose: 50.0 mg/kg/injection, schedule: Q01DX009 (oral), vehicle: saline 104 % of control | [12] 103 % of control | dose: 100.0 mg/kg/injection, schedule: Q01DX009 (oral), vehicle: saline 90 % of control | [14] 101 % of control | dose: 200.0 mg/kg/injection, schedule: Q01DX009 (oral), vehicle: saline 106 % of control | [16] 100 % of control | dose: 400.0 mg/kg/injection, schedule: Q01DX009 (oral), vehicle: saline 93 % of control | dose: 800.0 mg/kg/injection, schedule: Q01DX009 (ip), vehicle: saline 115 % of control | dose: 800.0 mg/kg/injection, schedule: Q01DX009 (oral), vehicle: saline 97 % of control

Cc1ccc(NC(=S)N(CCC#N)C2CCCCC2)cc1
inactive: [3] 101 % of control | [5] 104 % of control | [9] 101 % of control

O=C(NCc1ccc(Cl)cc1)Nc1cccc(F)c1
inactive: dose: 100.0 mg/kg/injection, schedule: Q01DX009 (ip), vehicle: gum acacia 105 % of control | dose: 200.0 mg/kg/injection, schedule: Q01DX009 (ip), vehicle: gum acacia 86 % of control | dose: 400.0 mg/kg/injection, schedule: Q01DX009 (ip), vehicle: gum acacia 98 % of control

CC(=O)c1ccc2c(c1)sc1ccccc12
inactive: dose: 50.0 mg/kg/injection, schedule: Q01DX001 (ip), vehicle: other 96 % of control | [10] 96 % of control | [11] 96 % of control | [17] 87 % of control

c1ccc(C(C2=NCCN2)c2ccccc2)cc1
inactive: [1] 101 % of control | [8] 102 % of control | [2] 106 % of control | [3] 91 % of control | [4] 101 % of control and 103 % of control

CCN(CC)Cc1c(C)[nH]c2ccc(N(C)C)cc2c1=O
inactive: [19] 101 % of control | [12] 106 % of control | [13] 115 % of control | [14] 92 % of control | [15] 109 % of control

COc1cc(C(C)=O)cc(OC)c1OC
inactive: dose: 100.0 mg/kg/injection, schedule: Q04DX003 (ip), vehicle: saline with Tween-80 102 % of control | dose: 200.0 mg/kg/injection, schedule: Q04DX003 (ip), vehicle: saline with Tween-80 96 % of control | dose: 400.0 mg/kg/injection, schedule: Q04DX003 (ip), vehicle: saline with Tween-80 98 % of control
